Where two headings read alike, the source gives them in different places.
Columns and labels:
HepG2 tumor = assay: Ex vivo biodistribution in HepG2 tumor bearing nude mice; conditions: 1 h post-injection, gamma counting
Method: (§1) All animal experiments were conducted according to the guideline of the Nanfang Hospital Animal Ethics Committee at the Southern Medical University. Male or female BALB/c nude mice (about 4-6 weeks old) were obtained from the Laboratory Animal Center at Southern Medical University. The HepG2 and McA-RH7777 HCC xenografts were established by subcutaneous injection of 1×10^6 tumor cells into the left shoulder of nude mice. The animals were used for in vivo studies when the tumors reached a size of 0.5-1 cm in diameter (4-6 weeks after inoculation).
(§2) Ex vivo biodistribution was evaluated at 60 min after the tail vein injection of 1.85 MBq of Al[^18F]F-GP2076 or Al[^18F]F-GP2633. Mice were euthanized and dissected. Major tissues and organs were collected and weighed wet. The radioactivity in the tissues and organs was measured using a gamma counter. The results were presented as % ID/g. For each animal, the radioactivity of the tissue and organ samples was calibrated with a known aliquot of the injected activity. Mean uptake (% ID/g) for a group of animals was calculated with standard deviations.

[1] = as above; conditions: both sexes, BALB/c nude, mouse, iv, 1.85 MBq, total radioactivity, 1 h post-injection, gamma counting
Method: as §1, §2

[2] = In vitro stability in PBS and mouse serum; type: in vitro ADME; conditions: PBS at room temperature and mouse serum at 37° C., 2 h incubation, HPLC
Method: In Vitro Stability. The stability of Al[^18F]F-GP2076 or Al[^18F]F-GP2633 was evaluated in PBS and mouse serum. Briefly, 5.55 MBq of Al[^18F]F-GP2076 or Al[^18F]F-GP2633 was incubated with 0.5 ml of PBS at room temperature or mouse serum at 37° C. with gentle shaking. The stability test was carried out at 2 h after the incubation. For the PBS study, an aliquot of the solution was taken, and the radiochemical purity was determined by analytical HPLC. For the mouse serum study, after the addition of TFA, the mixture was passed through a 0.2-μm filter. An aliquot of the soluble fraction was taken, and the radiochemical purity was examined by analytical HPLC.

[3] = MicroPET/CT imaging and biodistribution, HepG2 tumor model; type: in vivo, nude mice; conditions: both sexes, BALB/c nude, mouse, iv, 5.55 MBq, total radioactivity; for tissue to tissue ratio at 1 h / tissue to tissue ratio at 0.5 h / tissue to tissue ratio at 2 h: HepG2 (GPC3+) tumor bearing mice; for tissue to tissue ratio at 1 h / tissue uptake at 1 h: 60 min; for tissue to tissue ratio at 0.5 h / tissue uptake at 0.5 h: 30 min; for tissue to tissue ratio at 2 h / tissue uptake at 2 h: 120 min; for tissue uptake at 0.5 h / tissue uptake at 1 h / tissue uptake at 2 h: HepG2 (GPC3+) tumor model, PET
Method: (§3) MicroPET/CT Imaging and Biodistribution. MicroPET/CT scans were carried out using a Siemens Inveon PET/CT scanner (Siemens, Germany). Tumor-bearing mice (n=3/group) were intravenously injected with 5.55 MBq of Al[^18F]F-GP2076 or Al[^18F]F-GP2633 under isoflurane anesthesia. A ten-minute static PET scan for each animal was acquired at 30, 60, and 120 min after the injection. 3-Dimensional ordered subset expectation maximization (3D-OSEM) algorithm was used for the PET reconstruction, and CT was applied for attenuation correction. Detailed procedures for the microPET/CT imaging and biodistribution are provided in ESM.
as §1
(§4) Inveon Research Workplace (IRW) 3.0 software (Siemens, Germany) was used to measure the regions of interest (ROIs) determined by superimposing the ellipsoid volume of interest (VOI) on the target tissues. The radioactivity concentrations were measured by the mean pixel intensity within each VOI and converted to dose/ml using a calibration constant. Assuming the tissue density of 1 g/ml, the ROI was then converted to dose per gram and normalized as the percent injected dose per gram (% ID/g). Tumor-to-nontarget uptake ratios, including tumor-to-muscle (T/M), tumor-to-liver (T/L), and tumor-to-kidneys (T/K) ratios, were calculated by dividing the radioactivity uptake in tumor by that in the corresponding normal tissue or organ.

[4] = test system: GPC3-positive HepG2 tumor; assay: as above; type: in vivo, nude mice; conditions: for Kidneys uptake / Liver uptake / Tumor uptake: HepG2 (GPC3+) tumor model; for Tumor uptake: decay-corrected
Method: as §3, §1, §4

[5] = HepG2 tumor / liver, read-out: Tumor-to-liver (T/L) uptake ratio
[6] = HepG2 tumor / muscle, read-out: Tumor-to-muscle (T/M) uptake ratio
[7] = intestine, read-out: Intestinal uptake
[8] = decay-corrected, read-out: Tumor uptake
[9] = kidneys, read-out: Kidneys uptake
[10] = muscle, read-out: Muscle uptake
[11] = tumor / kidneys, read-out: Tumor-to-kidneys (T/K) uptake ratio
[12] = HepG2 (GPC3+) tumor bearing mice, 30 min
[13] = HepG2 (GPC3+) tumor bearing mice, 60 min
[14] = HepG2 (GPC3+) tumor bearing mice, 120 min

- HepG2 Tumor uptake, ex vivo biodistribution (HepG2 tumor): 1.13±0.02 % ID/g
- Liver uptake, ex vivo biodistribution (HepG2 tumor): 2.30±0.56 % ID/g
- tissue uptake at 1 h ([1]; HepG2 tumor, read-out: HepG2 Tumor uptake, ex vivo biodistribution): 1.13 ± 0.02 %ID/g
- tissue uptake at 1 h ([1]; blood, read-out: Blood uptake, ex vivo biodistribution): 0.36 ± 0.17 %ID/g
- tissue uptake at 1 h ([1]; bone, read-out: Bone uptake, ex vivo biodistribution): 0.29 ± 0.13 %ID/g
- tissue uptake at 1 h ([1]; brain, read-out: Brain uptake, ex vivo biodistribution): 0.1 ± 0.1 %ID/g
- tissue uptake at 1 h ([1]; heart, read-out: Heart uptake, ex vivo biodistribution): 0.36 ± 0.15 %ID/g
- tissue uptake at 1 h ([1]; kidneys, read-out: Kidneys uptake, ex vivo biodistribution): 6.37 ± 1.45 %ID/g
- tissue uptake at 1 h ([1]; liver, read-out: Liver uptake, ex vivo biodistribution): 2.3 ± 0.56 %ID/g
- tissue uptake at 1 h ([1]; muscle, read-out: Muscle uptake, ex vivo biodistribution): 0.24 ± 0.07 %ID/g
- percentage of intact radiotracer (in vitro stability) [2]: > 95%
- tissue to tissue ratio at 1 h ([3]; HepG2 tumor / kidneys, read-out: Tumor-to-kidneys (T/K) uptake ratio): 0.31 ± 0.04
- tissue to tissue ratio at 0.5 h [3, 5]: 0.43 ± 0.06
- tissue to tissue ratio at 1 h [3, 5]: 0.59 ± 0.14
- tissue to tissue ratio at 2 h [3, 5]: 0.46 ± 0.4
- tissue to tissue ratio at 0.5 h [3, 6]: 5.56 ± 1.36
- tissue to tissue ratio at 1 h [3, 6]: 5.13 ± 2.08
- tissue to tissue ratio at 2 h [3, 6]: 2.68 ± 0.29
- tissue uptake at 0.5 h ([3]; bone, read-out: Bone uptake): 0.95 %ID/g
- tissue uptake at 1 h ([3]; bone, read-out: Bone uptake): 0.35 %ID/g
- tissue uptake at 2 h ([3]; bone, read-out: Bone uptake): 0.21 %ID/g
- tissue uptake at 0.5 h ([3]; brain, read-out: Brain uptake): 0.63 %ID/g
- tissue uptake at 1 h ([3]; brain, read-out: Brain uptake): 0.18 %ID/g
- tissue uptake at 2 h ([3]; brain, read-out: Brain uptake): 0.13 %ID/g
- tissue uptake at 0.5 h ([3]; heart, read-out: Heart uptake): 1.29 %ID/g
- tissue uptake at 1 h ([3]; heart, read-out: Heart uptake): 1.05 %ID/g
- tissue uptake at 2 h ([3]; heart, read-out: Heart uptake): 0.36 %ID/g
- tissue uptake at 0.5 h [3, 7]: 3.03 %ID/g
- tissue uptake at 1 h [3, 7]: 2.57 %ID/g
- tissue uptake at 2 h [3, 7]: 1.8 %ID/g
- tissue uptake at 0.5 h [3, 8]: 2.2 %ID/g
- tissue uptake at 1 h [3, 8]: 2.13 %ID/g
- tissue uptake at 2 h [3, 8]: 0.73 %ID/g
- tissue uptake at 0.5 h [3, 9]: 9.83 %ID/g
- tissue uptake at 1 h [3, 9]: 7.03 %ID/g
- tissue uptake at 2 h [3, 9]: 2.27 %ID/g
- tissue uptake at 0.5 h ([3]; liver, read-out: Liver uptake): 5.1 %ID/g
- tissue uptake at 1 h ([3]; liver, read-out: Liver uptake): 3.7 %ID/g
- tissue uptake at 2 h ([3]; liver, read-out: Liver uptake): 2.07 %ID/g
- tissue uptake at 0.5 h ([3]; lung, read-out: Lung uptake): 1.57 %ID/g
- tissue uptake at 1 h ([3]; lung, read-out: Lung uptake): 0.78 %ID/g
- tissue uptake at 2 h ([3]; lung, read-out: Lung uptake): 0.43 %ID/g
- tissue uptake at 0.5 h [3, 10]: 0.41 %ID/g
- tissue uptake at 1 h [3, 10]: 0.44 %ID/g
- tissue uptake at 2 h [3, 10]: 0.28 %ID/g
- tissue to tissue ratio at 0.5 h [3, 11]: 0.25 ± 0.11
- tissue to tissue ratio at 2 h [3, 11]: 0.46 ± 0.46
- Tumor-to-liver (T/L) uptake ratio [4, 12]: 0.43±0.06
- Tumor-to-muscle (T/M) uptake ratio [4, 12]: 5.56±1.36
- Tumor-to-kidneys (T/K) uptake ratio [4, 13]: 0.31±0.04
- Tumor-to-liver (T/L) uptake ratio [4, 13]: 0.59±0.14
- Tumor-to-muscle (T/M) uptake ratio [4, 13]: 5.13±2.08
- Tumor-to-liver (T/L) uptake ratio [4, 14]: 0.46±0.40
- Tumor-to-muscle (T/M) uptake ratio [4, 14]: 2.68±0.29
- Kidneys uptake ([4]; 30 min, PET): 9.83±3.69 % ID/g
- Liver uptake ([4]; 30 min, PET): 5.10±0.53 % ID/g
- Tumor uptake ([4]; 30 min, PET): 2.20±0.36 % ID/g
- Kidneys uptake ([4]; 60 min, PET): 7.03±2.32 % ID/g
- Liver uptake ([4]; 60 min, PET): 3.70±0.98 % ID/g
- Tumor uptake ([4]; 60 min, PET): 2.13±0.55 % ID/g
- Kidneys uptake ([4]; 120 min, PET): 2.27 ± 1.07 % ID/g
- Liver uptake ([4]; 120 min, PET): 2.07 ± 0.96 % ID/g
- Tumor uptake ([4]; 120 min, PET): 0.73±0.32 % ID/g
- defluorination in vivo (from low bone uptake) ([4]; PET, bone uptake): did not occur
- clearance / excretion route from the mouse body ([4]; as visualized by PET images): primarily through the hepatic pathway
Structure (SMILES): CC(C)C[C@H](NC(=O)[C@H](CCCNC(=N)N)NC(=S)Nc1ccc(CC2CN(CC(=O)O)CCN(CC(=O)O)CCN2CC(=O)O)cc1)C(=O)N[C@@H](CC(N)=O)C(=O)N[C@H](C(=O)NCC(=O)NCC(=O)N[C@H](C(=O)N[C@@H](Cc1ccc(O)cc1)C(=O)N[C@@H](Cc1ccccc1)C(=O)N[C@@H](CC(C)C)C(=O)N[C@H](C(=O)N[C@H](C(=O)N[C@@H](CCCNC(=N)N)C(=O)N[C@@H](CCC(N)=O)C(=O)O)[C@@H](C)O)[C@@H](C)O)[C@@H](C)O)C(C)C (single isomer, unassigned) [Al[^18F]F-GP2076]

— patent US20210347709A1, “RADIOFLUORINATED GPC3-BINDING PEPTIDES FOR PET IMAGING OF HEPATOCELLULAR CARCINOMA” (University of Southern California, priority 2020, published 2021)
